Entries after “also recorded” stand apart in the source; their conditions may differ.
Tests used:
[1] = tested on: CRTC2 (TORC2); assay: CRTC2 nuclear translocation (PathHunter U2OS); format: cell-based
In short: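 U2OS enzyme-fragment complementation cells (ED-tagged CRTC2, EA-tagged nuclear TAZ domain) treated 90 minutes, duplicate 5-point 4-fold dilutions from 10 μM. Chemiluminescent substrate signal; maximal translocation expressed as percent of forskolin-stimulated signal.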

[2] = Initial mouse pharmacokinetic study; format: in vivo
[3] = tested on: RANKL; assay: RANKL gene expression in Ocy454 cells (RT-qPCR); conditions: for RANKL expression: 4 hours, RT-qPCR;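 on all read-outs here: Ocy454 cells moved to 37 °C for osteocytic differentiation before compound exposure, RANKL mRNA by SYBR Green qRT-PCR, 2^−ΔΔCT with β-actin normalization, duplicate wells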
[4] = tested on: HDAC4/5; assay: HDAC4/5 phosphorylation immunoblot in Ocy454 cells; format: cell-based; conditions: 2 hours
Experimental: Immunoblotting was performed as previously described (see e.g., Wein et al, Nature Communications, 2016, 7:13176; and Sato et al, Nature Communications, 2020, 11(1):3282). […]. Adherent cells were washed with ice cold PBS, then scraped into TNT buffer on ice. Material was then transferred into Eppendorf tubes kept on ice, vortexed at top speed for 30 seconds, then centrifuged at top speed for 6 minutes at 4° C. For subcellular fractionation, cells were initially resuspended in hypotonic lysis buffer (20 mM HEPES, 10 mM KCl, 1 mM MgCl2, 0.1% Triton X-100, 5% glycerol supplemented with DTT, protease inhibitors, and phosphatase inhibitors) for 5 minutes on ice. Nuclear pellets were spun down at 5,000 rpm for 5 minutes, and the supernatant was saved as the cytoplasmic lysate. Thereafter, the nuclear pellet was washed once in 1 mL hypotonic lysis buffer. The nuclear pellet was then resuspended in hypertonic lysis buffer (20 mM HEPES, 400 mM NaCl, 1 mM EDTA, 0.1% Triton X-100, 5% glycerol supplemented with DTT, protease inhibitors, and phosphatase inhibitors), followed by vortexing twice for 30 seconds. Debris was spun down at 14,000 rpm for 5 minutes, and the supernatant was saved as the nuclear lysate. For immunoblotting, lysates or immunoprecipitates were separated by SDS-PAGE and proteins were transferred to nitrocellulose. Membranes were blocked with 5% milk in tris-buffered saline plus 0.05% Tween-20 (TBST) and incubated with primary antibody overnight at 4° C. The next day, membranes were washed, incubated with appropriate HRP-coupled secondary antibodies, and signals detected with ECL Western Blotting Substrate (Pierce), ECL Plus Western Blotting Substrate (Pierce), or SuperSignal West Femto Maximum Sensitivity Substrate (Thermo scientific). The primary antibodies phospho-HDAC4/5/7 (S246/S259/S155) (Cell Signaling Technology, 3443) and total HDAC5 (Assay Biotech, C0225).

[5] = 3-week mouse study: tolerability and serum drug levels; format: in vivo, mice
Experimental: […]. For oral gavage, cmpd. 51 was dissolved in vehicle solution of 15% hydroxy-propyl beta-cyclodextrin in sterile water.
(§1) […]. In addition, one group of mice with oral vehicle solution (negative control) and another group of mice were treated with once daily subcutaneous hPTH(1-34) (80 μg/kg) injections (positive control). […].

[6] = tested on: eugonadal 8 week old male mice; assay: 3-week mouse study: serum mineral metabolism parameters and bone turnover markers; format: in vivo; conditions: for serum CTX (bone resorption marker) / serum P1NP (bone formation marker): 40 mg/kg oral, 21 days, compared to vehicle; for serum 1,25-vitamin D / serum BUN / serum PTH levels / serum calcium / serum phosphorus: after 21 days of treatment, 2 hours after final dose
Experimental: . In addition, one group of mice with oral vehicle solution (negative control) and another group of mice were treated with once daily subcutaneous hPTH(1-34) (80 μg/kg) injections (positive control). […]. Serum mineral metabolism parameters were measured in mice in all 5 treatment groups after 21 days of treatment (serum was collected 2 hours after the final treatment dose). […]. Serum bone turnover markers (P1NP, a marker of bone formation; CTX, a marker of bone resorption) were next measured on samples collected after 21 days of treatment. […]

[7] = tested on: SOST; assay: SOST gene expression in Ocy454 cells (RT-qPCR); format: cell-based; conditions: 4 hours
[8] = tested on: eugonadal 8 week old male mice; assay: 3-week mouse study: femur microCT; format: in vivo; conditions: 3 weeks; for midshaft cortical bone tissue mineral density (TMD), microCT: femur
Experimental: as §1

[9] = tested on: eugonadal 8 week old male mice; assay: 3-week mouse study: tibia histology and femur histomorphometry; format: in vivo; conditions: 3 weeks
Experimental: as §1

[10] = tested on: bone cell marker genes, sclerostin; assay: 3-week mouse study: cortical bone RT-qPCR and sclerostin immunohistochemistry; format: in vivo, mice; conditions: 3 weeks of treatment
Experimental: . For this, cortical bone RNA isolated from mice following three weeks of cmpd. 51 treatment were analyzed and subjected to RT-qPCR for well-established bone cell marker genes. […]. […] Therefore, sclerostin (encoded by the Sost gene) expression in bone in response to cmpd. 51 treatment was also assessed by RT-qPCR and immunohistochemistry. […]. Cmpd. 55A (FIG. 17) was also identified. […]

[11] = target: SIK3 in HEK293T cells (Homo sapiens (Human), UniProt Q9Y2K2); assay: cell-based; conditions: read-out: IC50 for SIK3 (nanoBRET)
[12] = target: SIK3 (Homo sapiens (Human), UniProt Q9Y2K2); assay: In vitro SIK3 kinase assay; format: biochemical
[13] = target: SIK1 in HEK293T cells (Homo sapiens (Human), UniProt P57059); assay: cell-based; conditions: read-out: IC50 for SIK1 (nanoBRET)
[14] = target: SIK1 (Homo sapiens (Human), UniProt P57059); assay: In vitro SIK1 kinase assay; format: biochemical
[15] = target: Recombinant SIK2 (Homo sapiens (Human), UniProt Q9H0K1); assay: biochemical; conditions: recombinant SIK2 2.5 nM, 1 μM ATP; read-out: SIK2 IC50
[16] = target: NanoLuc-SIK2 fusion in HEK293 cells (Homo sapiens (Human), UniProt Q9H0K1); assay: cell-based; conditions: HEK293T cells; read-out: IC50 for SIK2 (nanoBRET)
NanoLuc-SIK2 fusion in HEK293 cells, sequence (Q9H0K1 whole entry, the tested form may be a part): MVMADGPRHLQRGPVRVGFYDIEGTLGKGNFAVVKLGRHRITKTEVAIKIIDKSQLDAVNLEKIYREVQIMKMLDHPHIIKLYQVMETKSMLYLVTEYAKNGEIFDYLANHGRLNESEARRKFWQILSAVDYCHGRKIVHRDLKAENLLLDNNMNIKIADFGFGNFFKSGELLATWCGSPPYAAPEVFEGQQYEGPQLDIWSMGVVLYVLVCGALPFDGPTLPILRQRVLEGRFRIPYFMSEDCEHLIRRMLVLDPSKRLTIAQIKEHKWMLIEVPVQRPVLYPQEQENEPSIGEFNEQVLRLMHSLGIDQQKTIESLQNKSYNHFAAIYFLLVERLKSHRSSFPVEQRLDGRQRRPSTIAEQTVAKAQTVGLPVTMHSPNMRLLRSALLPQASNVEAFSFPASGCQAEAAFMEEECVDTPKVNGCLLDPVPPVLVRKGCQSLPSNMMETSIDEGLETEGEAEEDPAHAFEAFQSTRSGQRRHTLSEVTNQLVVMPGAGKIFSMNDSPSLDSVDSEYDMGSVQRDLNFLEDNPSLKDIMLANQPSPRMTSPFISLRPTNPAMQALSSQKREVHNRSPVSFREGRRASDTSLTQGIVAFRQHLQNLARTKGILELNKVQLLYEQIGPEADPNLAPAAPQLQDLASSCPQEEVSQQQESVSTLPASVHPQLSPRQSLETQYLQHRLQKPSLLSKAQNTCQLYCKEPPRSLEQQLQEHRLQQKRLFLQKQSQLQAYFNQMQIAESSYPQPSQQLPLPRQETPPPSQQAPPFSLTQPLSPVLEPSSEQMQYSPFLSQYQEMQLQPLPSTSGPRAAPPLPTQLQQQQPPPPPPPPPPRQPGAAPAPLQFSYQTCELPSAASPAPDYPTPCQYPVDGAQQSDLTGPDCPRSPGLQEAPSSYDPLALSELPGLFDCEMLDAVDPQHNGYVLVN

Recombinant SIK2, sequence (Q9H0K1 whole entry, the tested form may be a part): as above
SIK3, sequence (Q9Y2K2 whole entry): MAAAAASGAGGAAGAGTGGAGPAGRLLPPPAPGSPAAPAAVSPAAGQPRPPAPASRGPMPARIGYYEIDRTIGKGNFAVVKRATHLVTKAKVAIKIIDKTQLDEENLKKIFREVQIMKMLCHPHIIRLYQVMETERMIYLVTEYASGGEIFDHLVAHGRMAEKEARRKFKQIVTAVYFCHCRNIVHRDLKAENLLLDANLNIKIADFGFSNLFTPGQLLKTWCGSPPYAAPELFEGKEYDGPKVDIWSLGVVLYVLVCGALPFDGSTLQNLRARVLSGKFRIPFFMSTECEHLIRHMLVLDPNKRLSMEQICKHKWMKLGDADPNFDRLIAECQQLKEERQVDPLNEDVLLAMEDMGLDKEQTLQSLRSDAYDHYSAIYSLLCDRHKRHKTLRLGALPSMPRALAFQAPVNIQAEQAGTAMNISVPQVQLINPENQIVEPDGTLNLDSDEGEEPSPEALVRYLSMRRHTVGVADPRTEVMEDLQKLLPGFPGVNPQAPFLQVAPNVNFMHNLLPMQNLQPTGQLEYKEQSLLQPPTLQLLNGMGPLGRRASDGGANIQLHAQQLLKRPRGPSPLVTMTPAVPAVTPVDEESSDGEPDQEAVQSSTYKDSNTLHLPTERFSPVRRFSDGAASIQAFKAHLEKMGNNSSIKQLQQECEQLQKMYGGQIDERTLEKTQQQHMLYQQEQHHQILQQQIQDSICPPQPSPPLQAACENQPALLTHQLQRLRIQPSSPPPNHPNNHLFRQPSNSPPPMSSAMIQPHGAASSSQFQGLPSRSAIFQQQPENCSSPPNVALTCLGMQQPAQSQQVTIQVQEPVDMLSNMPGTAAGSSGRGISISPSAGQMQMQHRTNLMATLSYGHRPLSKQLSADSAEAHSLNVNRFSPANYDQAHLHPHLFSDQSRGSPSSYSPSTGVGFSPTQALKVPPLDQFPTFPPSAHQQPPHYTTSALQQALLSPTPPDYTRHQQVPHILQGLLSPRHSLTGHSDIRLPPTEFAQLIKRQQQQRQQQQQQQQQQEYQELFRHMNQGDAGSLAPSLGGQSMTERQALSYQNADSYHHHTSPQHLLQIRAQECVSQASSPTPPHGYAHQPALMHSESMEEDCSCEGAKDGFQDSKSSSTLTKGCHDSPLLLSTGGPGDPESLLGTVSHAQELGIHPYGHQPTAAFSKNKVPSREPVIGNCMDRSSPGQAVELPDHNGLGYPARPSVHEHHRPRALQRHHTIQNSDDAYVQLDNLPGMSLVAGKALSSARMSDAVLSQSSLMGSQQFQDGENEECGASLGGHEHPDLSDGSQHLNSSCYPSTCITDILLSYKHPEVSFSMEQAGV
SIK3 in HEK293T cells, sequence (Q9Y2K2 whole entry): as above
SIK1 in HEK293T cells, sequence (P57059 whole entry): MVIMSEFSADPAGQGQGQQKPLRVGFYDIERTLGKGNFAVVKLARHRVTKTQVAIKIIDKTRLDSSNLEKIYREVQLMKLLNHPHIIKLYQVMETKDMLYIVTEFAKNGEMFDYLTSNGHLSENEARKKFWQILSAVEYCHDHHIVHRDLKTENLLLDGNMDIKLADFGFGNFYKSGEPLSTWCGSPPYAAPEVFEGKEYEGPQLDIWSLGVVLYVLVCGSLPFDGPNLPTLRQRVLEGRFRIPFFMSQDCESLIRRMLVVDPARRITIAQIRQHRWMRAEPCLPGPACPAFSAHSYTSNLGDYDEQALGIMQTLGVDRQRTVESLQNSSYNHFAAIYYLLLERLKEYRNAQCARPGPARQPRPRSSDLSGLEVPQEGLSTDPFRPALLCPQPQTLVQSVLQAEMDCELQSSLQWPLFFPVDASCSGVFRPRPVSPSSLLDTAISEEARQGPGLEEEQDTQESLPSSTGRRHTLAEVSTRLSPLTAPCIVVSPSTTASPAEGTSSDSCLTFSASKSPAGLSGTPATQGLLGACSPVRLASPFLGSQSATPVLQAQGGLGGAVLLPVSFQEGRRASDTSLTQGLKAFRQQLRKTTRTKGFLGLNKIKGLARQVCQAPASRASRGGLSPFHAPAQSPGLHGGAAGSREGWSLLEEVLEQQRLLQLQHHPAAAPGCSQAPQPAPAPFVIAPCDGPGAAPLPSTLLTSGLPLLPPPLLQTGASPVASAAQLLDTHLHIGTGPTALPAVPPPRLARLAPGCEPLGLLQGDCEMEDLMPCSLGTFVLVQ
SIK1, sequence (P57059 whole entry): as above

CCc1nnc(-c2c(OC)cc(-c3cnc4cc(-c5cnn(C)c5)ccn34)cc2OC)o1 [Example 51, 2-[2,6-Dimethoxy-4-[7-(1-methylpyrazol-4-yl)imidazo[1,2-a]pyridin-3-yl]phenyl]-5-ethyl-1,3,4-oxadiazole]
EC50 ([1]; Homo sapiens, U2OS, read-out: CRTC2 nuclear translocation EC50): 147 nM
CRTC2 Efficacy (% of forskolin) ([1]; maximal CRTC2 nuclear translocation, U2OS cells, 90 minutes, maximum dose 10 μM): 86.5 % of forskolin
oral availability ([2]; single dose of 10 mg/kg): excellent oral availability
maximum serum concentration ([2]; single oral dose of 10 mg/kg): 11 µM
RANKL expression [3]: stimulates RANKL expression
RANKL expression ([3]; listed as cmpd. 51): increased RANKL; also recorded: induction of RANKL
HDAC4/5 phosphorylation [4]: reduces levels of HDAC4/5 phosphorylation
HDAC4/5 phosphorylation ([4]; listed as Cmpd. 51): reduced phosphorylated HDAC4/5 levels
HDAC4/5 phosphorylation ([4]; listed as cmpd. 51): dose-dependent reduction of phosphorylation
serum drug levels ([5]; 2 hours after oral gavage on day 13, 3 dose groups): increased in a dose-dependent manner; also recorded: Dose-dependent increases
tolerability (health concerns, weight loss, toxicities) ([5]; mice, once daily oral gavage for 3 weeks): without obvious health concerns or weight loss; also recorded: without obvious toxicities
serum CTX (bone resorption marker) ([6]; listed as Cmpd. 51): increasing this marker of bone remodeling
serum P1NP (bone formation marker) ([6]; listed as Cmpd. 51): increasing this marker of bone remodeling
serum CTX (bone resorption marker) ([6]; listed as cmpd. 51): increased
serum P1NP (bone formation marker) ([6]; listed as cmpd. 51): increased P1NP
serum 1,25-vitamin D ([6]; listed as Cmpd. 51): increased serum 1,25-vitamin D
serum BUN ([6]; listed as Cmpd. 51): did not affect serum BUN levels
serum PTH levels ([6]; listed as Cmpd. 51): suppressed PTH levels
serum calcium ([6]; listed as Cmpd. 51): increased serum calcium
serum phosphorus ([6]; listed as Cmpd. 51): did not affect serum phosphorus levels
serum 1,25-vitamin D ([6]; listed as cmpd. 51): increased 1,25-vitamin D levels
serum BUN ([6]; listed as cmpd. 51): did not alter
serum PTH levels ([6]; listed as cmpd. 51): reduced serum PTH levels
serum calcium ([6]; listed as cmpd. 51): increased calcium
serum phosphorus ([6]; listed as cmpd. 51): did not alter
SOST expression [7]: reduces SOST
SOST expression ([7]; listed as cmpd. 51): suppressed SOST expression; also recorded: suppression of SOST expression
primary spongiosa bone mineral density (BMD), microCT ([8]; distal femur, 40 mg/kg): increased bone mineral density (BMD)
primary spongiosa bone volume fraction (BV/TV), microCT ([8]; distal femur, 40 mg/kg): increased primary spongiosa bone volume fraction (BV/TV)
midshaft cortical bone tissue mineral density (TMD), microCT ([8]; listed as Cmpd. 51): increased cortical bone tissue mineral density
midshaft cortical bone tissue mineral density (TMD), microCT ([8]; listed as cmpd. 51): gains in bone mass
TRAP-positive osteoclasts (tibia sections) ([9]; cmpd. 51 40 mg/kg): increased TRAP-positive osteoclasts
osteoblasts (tibia sections) ([9]; cmpd. 51 40 mg/kg): increased osteoblasts
trabecular bone (tibia sections, hematoxylin and eosin) ([9]; cmpd. 51 40 mg/kg): increased trabecular bone mass
bone formation rate (BFR/BS), histomorphometry ([9]; distal femur metaphysis): increased the bone formation rate
bone volume fraction (BV/TV), histomorphometry ([9]; distal femur metaphysis): increased bone volume fraction (BV/TV); also recorded: increased trabecular bone mass
matrix apposition rate (MAR), histomorphometry ([9]; distal femur metaphysis): increased matrix apposition rate
mineralizing surface (MS/BS), histomorphometry ([9]; distal femur metaphysis): Neither cmpd. 51 nor PTH treatment increased
osteoblast surfaces (Ob.S.BS), histomorphometry ([9]; distal femur metaphysis): increased osteoblast surfaces
osteoclast numbers (N.Oc/B.Pm), histomorphometry ([9]; distal femur metaphysis): increased osteoclast numbers
Ctsk (cathepsin K) expression in cortical bone ([10]; RT-qPCR): expression was increased; also recorded: increases the expression
Sost mRNA (sclerostin gene expression) in cortical bone ([10]; RT-qPCR): reduced sclerostin gene expression
Spp1 (osteopontin) expression in cortical bone ([10]; RT-qPCR): expression was increased; also recorded: increases the expression of Spp1
sclerostin protein levels in bone ([10]; immunohistochemistry): reduced

CCc1nnc(-c2c(OC)cc(-c3cnc4cc(-c5cnn(C6CC6)c5)ccn34)cc2OC)o1 [Example 55, 2-[4-[7-(1-Cyclopropylpyrazol-4-yl)imidazo[1,2-a]pyridin-3-yl]-2,6-dimethoxy-phenyl]-5-ethyl-1,3,4-oxadiazole]
IC50 [11]: 4.48 nM
IC50 [12]: 2.66 nM
RANKL Fold Induction ([3]; maximal RANKL fold induction versus DMSO, four hours): 22.80 fold
IC50 [13]: 2100 nM
IC50 [14]: 16 nM
IC50 [15]: 1.48 nM
IC50 [16]: 12.2 nM
